According to PMC6384738, “Structure-Function Studies of Polymyxin B Lipononapeptides” (Molecules, 2019):
≈ marks a conversion by molar mass, not a printed value. *1 amine or outer side, *2 acyl side, *3 side chain or, on linkers, in order; H or OH if unused. Where a SMILES comes first, the peptide text is derived from it. Bridges are numbered along the chain shown (N, C = ends). [ ]: non-standard residue; d: D form. The star is where a group is joined. Isonicotinoyl(2-Ph) = O=C(c1ccnc(-c2ccccc2)c1)*; Benzoyl(4-hexyl) = CCCCCCc1ccc(C(=O)*)cc1; NH(2-ClPh) = Clc1ccccc1N*; dDab = NCC[C@@H](N)C(=O)O; Octanoyl = CCCCCCCC(=O)*; Orn = NCCC[C@H](N)C(=O)O; Dab = NCC[C@H](N)C(=O)O; CO = O=C([*:1])[*:2]

Tests used:
[1] = system: K. pneumoniae ATCC 700603; assay: microbe, parasite or virus in culture
Description: (§1) All compounds synthesised in this study were assessed for their minimum inhibitory concentrations (MIC, mg/L) by broth microdilution assay against five antibiotic-sensitive and resistant ATCC reference strains covering the Gram-negative ESKAPE pathogens (Escherichia coli, Klebsiella pneumoniae, A. baumannii, and P. aeruginosa) (Table 1, Table 2 and Table 3). Staphylococcus aureus was also included as a representative Gram-positive bacterial strain. […] Polymyxin B 1, colistin 2, vancomycin and gentamicin were used as positive inhibitor comparator compounds. Compounds were counter-screened against human proximal tubular epithelial cells (HK-2), using LDH release as a general indicator of cellular toxicity.

A. baumannii ATCC 19606 = assay: microbe, parasite or virus in culture
Description: as §1

K. pneumoniae ATCC 13833 = assay: microbe, parasite or virus in culture
Description: as §1

E. coli ATCC 25922 = assay: microbe, parasite or virus in culture
Description: as §1

K. pneumoniae BAA 2146 = assay: microbe, parasite or virus in culture
Description: as §1

S. aureus ATCC 25923 = assay: microbe, parasite or virus in culture
Description: as §1

P. aeruginosa ATTC 27853 = assay: microbe, parasite or virus in culture
Description: as §1

[2] = system: P. aeruginosa FADDI PA070; assay: microbe, parasite or virus in culture; conditions: for MIC P. aeruginosa FADDI PA070: FADDI PA070, 18 h
Description: as §1

in vitro = conditions: human
Description: as §1
Cytotoxicity to human kidney proximal tubular epithelial cell line, HK-2 (ATCC CRL-2190, sourced from ATCC; Manassas, VA, USA) was determined using the LDH assay as previously described. In brief, HK-2 cells were seeded as 2000 cells/well in black-walled clear bottom 384-well tissue culture treated plates (Corning, catalogue No. 3712) in DMEM/F12 medium (Gibco® 10565-042) containing 10% of Fetal Bovine Serum (FBS, Gibco® 10099-141) and incubated for 24 h at 37 °C, 5% CO2. Compounds were then added into each well with a concentration series from 300 µM to 2.3 µM in 2-fold dilutions. Colistin and polymyxin B were used as controls and tested at a final concentration range of 1 mM to 7.8 µM. The cells were incubated with the compounds for 24 h at 37 °C, 5% CO2. After the incubation, 5 µL of culture medium was added to 45 µL of LDH assay buffer (Biovision, K313-500) and incubated for 30 min at room temperature. The absorbance (ABS) was then read at 450 nm using a Polar Star Omega plate reader. The data was analysed by Prism 6 software (GraphPad Software, La Jolla, CA, USA). Results were calculated using the following equation: cytotoxicity %= (ABSsamples − ABSuntreated/ABS1%Triton X-100 − ABSuntreated) × 100.

| SMILES | MIC K. pneumoniae ATCC 700603 ([1]; ATCC 700603, 18 h) [mg/L] | MIC A. baumannii ATCC 19606 (A. baumannii ATCC 19606; ATCC 19606, 18 h) [mg/L] | MIC K. pneumoniae ATCC 13833 (K. pneumoniae ATCC 13833; ATCC 13833, 18 h) [mg/L] | MIC E. coli ATCC 25922 (E. coli ATCC 25922; ATCC 25922, 18 h) [mg/L] | MIC K. pneumoniae BAA 2146 (K. pneumoniae BAA 2146; BAA 2146, 18 h) [mg/L] | MIC S. aureus ATCC 25923 (S. aureus ATCC 25923; ATCC 25923, 18 h) [mg/L] | MIC P. aeruginosa ATTC 27853 (P. aeruginosa ATTC 27853; ATTC 27853, 18 h) [mg/L] | CC50 at 24 h (in vitro) [µM] | other results |
| --- | --- | --- | --- | --- | --- | --- | --- | --- | --- |
| CCCCCCCC(=O)NCC(=O)N[C@H](CCN)C(=O)N[C@H]1CCNC(=O)[C@H]([C@@H](C)O)NC(=O)[C@H](CCN)NC(=O)[C@H](CCN)NC(=O)[C@H](CC(C)C)NC(=O)[C@@H](Cc2ccccc2)NC(=O)[C@H](CCN)NC1=O [Compound 33] (Octanoyl-G[dDab][Dab][Dab][dF]L[Dab][Dab]T; lactam 3-C) | 32 (≈ 30.6 µM) | >32 | >32 | 16 (≈ 15.3 µM) | >32 | >32 | 1 (≈ 0.957 µM) | 262 | MIC P. aeruginosa FADDI PA070 [2]: >32 mg/L |
| CNC(C)C1CCC(N)C(OC2C(N)CC(N)C(OC3OCC(C)(O)C(NC)C3O)C2O)O1 (stereo not drawn) [Gent, gentamicin, reference compound] | – | – | – | – | – | – | – | > 300 | MIC ([1]; Klebsiella pneumoniae, ATCC700603, 18 h, read-out: MIC K. pneumoniae ATCC 700603): 8 mg/L (≈ 16.8 µM); MIC (A. baumannii ATCC 19606; Acinetobacter baumannii, ATCC19606, 18 h, read-out: MIC A. baumannii ATCC 19606): 32 mg/L (≈ 67 µM); MIC (K. pneumoniae ATCC 13833; Klebsiella pneumoniae, ATCC13833, 18 h, read-out: MIC K. pneumoniae ATCC 13833): 0.25 mg/L (≈ 0.523 µM); MIC (K. pneumoniae BAA 2146; Klebsiella pneumoniae, BAA2146, 18 h, read-out: MIC K. pneumoniae BAA 2146): > 32 mg/L; MIC (S. aureus ATCC 25923; Staphylococcus aureus, ATCC25923, 18 h, read-out: MIC S. aureus ATCC 25923): 0.5 mg/L (≈ 1.05 µM); MIC (P. aeruginosa ATTC 27853; Pseudomonas aeruginosa, ATTC27853, 18 h, read-out: MIC P. aeruginosa ATTC 27853): > 32 mg/L; MIC ([2]; Pseudomonas aeruginosa, FADDIPA070, 18 h, read-out: MIC P. aeruginosa FADDI PA070): 32 mg/L (≈ 67 µM) |
| CCCCCCCC(=O)N[C@@H](CCN)C(=O)N[C@H](C(=O)N[C@H](CCN)C(=O)N[C@H]1CCNC(=O)[C@H]([C@@H](C)O)NC(=O)[C@H](CCN)NC(=O)[C@H](CCN)NC(=O)[C@H](CC(C)C)NC(=O)[C@@H](Cc2ccccc2)NC(=O)[C@H](CCN)NC1=O)[C@@H](C)O [Compound 20] (Octanoyl-[Dab]T[dDab][Dab][Dab][dF]L[Dab][Dab]T; lactam 4-C) | 1 (≈ 0.841 µM) | – | 0.5 (≈ 0.42 µM) | – | 4 (≈ 3.36 µM) | – | 2 (≈ 1.68 µM) | 183 | MIC P. aeruginosa FADDI PA070 [2]: >32 mg/L |
| CCCCCCc1ccc(C(=O)N[C@H](C(=O)N[C@@H](CCN)C(=O)N[C@H]2CCNC(=O)[C@H]([C@@H](C)O)NC(=O)[C@H](CCN)NC(=O)[C@H](CCN)NC(=O)[C@H](CC(C)C)NC(=O)[C@@H](Cc3ccccc3)NC(=O)[C@H](CCN)NC2=O)[C@@H](C)O)cc1 [Compound 12] ({Benzoyl(4-hexyl)}-T[Dab][Dab][Dab][dF]L[Dab][Dab]T; lactam 3-C) | 4 (≈ 3.47 µM) | 32 (≈ 27.8 µM) | 16 (≈ 13.9 µM) | 2 (≈ 1.74 µM) | 2 (≈ 1.74 µM) | 8 (≈ 6.95 µM) | 1 (≈ 0.868 µM) | 46 | – |
| CC(C)C[C@@H]1NC(=O)[C@@H](Cc2ccccc2)NC(=O)[C@H](CCN)NC(=O)[C@@H](NC(=O)[C@H](CCN)NC(=O)[C@@H](NC(=O)c2ccnc(-c3ccccc3)c2)[C@@H](C)O)CCNC(=O)[C@H]([C@@H](C)O)NC(=O)[C@H](CCN)NC(=O)[C@H](CCN)NC1=O [Compound 10] ({Isonicotinoyl(2-Ph)}-T[Dab][Dab][Dab][dF]L[Dab][Dab]T; lactam 3-C) | 16 (≈ 14 µM) | >32 | >32 | 4 (≈ 3.5 µM) | 16 (≈ 14 µM) | >32 | 1 (≈ 0.874 µM) | > 300 | – |
| CCCCCCCC(=O)N[C@H](C(=O)N[C@@H](CCN)C(=O)N[C@H]1CCCNC(=O)[C@H]([C@@H](C)O)NC(=O)[C@H](CCN)NC(=O)[C@H](CCN)NC(=O)[C@H](CC(C)C)NC(=O)[C@@H](Cc2ccccc2)NC(=O)[C@H](CCN)NC1=O)[C@@H](C)O [Compound 17] (Octanoyl-T[Dab][Orn][Dab][dF]L[Dab][Dab]T; lactam 3-C) | 16 (≈ 14.5 µM) | >32 | 32 (≈ 29 µM) | 2 (≈ 1.81 µM) | 16 (≈ 14.5 µM) | >32 | 2 (≈ 1.81 µM) | 88 | – |
| CCCCCCCC(=O)N[C@H](C(=O)N[C@@H](CCCNC(=N)N)C(=O)N[C@H]1CCNC(=O)[C@H]([C@@H](C)O)NC(=O)[C@H](CCN)NC(=O)[C@H](CCN)NC(=O)[C@H](CC(C)C)NC(=O)[C@@H](Cc2ccccc2)NC(=O)[C@H](CCN)NC1=O)[C@@H](C)O [Compound 45] (Octanoyl-TR[Dab][Dab][dF]L[Dab][Dab]T; lactam 3-C) | 8 (≈ 6.98 µM) | 32 (≈ 27.9 µM) | >32 | 2 (≈ 1.75 µM) | 16 (≈ 14 µM) | >32 | 4 (≈ 3.49 µM) | > 300 | – |
| CCCCCCCC(=O)N[C@H](C(=O)N[C@@H](CCN)C(=O)N[C@H]1CCCCNC(=O)[C@H]([C@@H](C)O)NC(=O)[C@H](CCN)NC(=O)[C@H](CCN)NC(=O)[C@H](CC(C)C)NC(=O)[C@@H](Cc2ccccc2)NC(=O)[C@H](CCN)NC1=O)[C@@H](C)O [Compound 18] (Octanoyl-T[Dab]K[Dab][dF]L[Dab][Dab]T; lactam 3-C) | >32 | >32 | >32 | 16 (≈ 14.3 µM) | >32 | >32 | 16 (≈ 14.3 µM) | 88 | – |
| CCCCCCCC(=O)N[C@H](C(=O)N[C@@H](CCCCN)C(=O)N[C@H]1CCNC(=O)[C@H]([C@@H](C)O)NC(=O)[C@H](CCN)NC(=O)[C@H](CCN)NC(=O)[C@H](CC(C)C)NC(=O)[C@@H](Cc2ccccc2)NC(=O)[C@H](CCN)NC1=O)[C@@H](C)O [Compound 42] (Octanoyl-TK[Dab][Dab][dF]L[Dab][Dab]T; lactam 3-C) | 16 (≈ 14.3 µM) | 32 (≈ 28.6 µM) | 16 (≈ 14.3 µM) | 4 (≈ 3.58 µM) | 8 (≈ 7.16 µM) | >32 | 4 (≈ 3.58 µM) | > 300 | – |
| CCCCCCCC(=O)N[C@H](C(=O)N[C@@H](Cc1c[nH]c2ccccc12)C(=O)N[C@H]1CCNC(=O)[C@H]([C@@H](C)O)NC(=O)[C@H](CCN)NC(=O)[C@H](CCN)NC(=O)[C@H](CC(C)C)NC(=O)[C@@H](Cc2ccccc2)NC(=O)[C@H](CCN)NC1=O)[C@@H](C)O [Compound 46] (Octanoyl-TW[Dab][Dab][dF]L[Dab][Dab]T; lactam 3-C) | 32 (≈ 27.2 µM) | >32 | >32 | >32 | >32 | >32 | >32 | > 300 | – |
| CC(C)C[C@@H]1NC(=O)[C@@H](Cc2ccccc2)NC(=O)[C@H](CCN)NC(=O)[C@@H](NC(=O)[C@H](CCN)NC(=O)[C@@H](NC(=O)Nc2ccccc2Cl)[C@@H](C)O)CCNC(=O)[C@H]([C@@H](C)O)NC(=O)[C@H](CCN)NC(=O)[C@H](CCN)NC1=O [Compound 15] ({NH(2-ClPh)-CO}-T[Dab][Dab][Dab][dF]L[Dab][Dab]T; lactam 3-C) | – | – | – | – | – | – | – | 206 | MIC K. pneumoniae ATCC 700603 ([1]; ESBL strain, broth microdilution, 18 h): 32 mg/L (≈ 28.7 µM); MIC A. baumannii ATCC 19606 (A. baumannii ATCC 19606; broth microdilution, 18 h): >32 mg/L; MIC K. pneumoniae ATCC 13833 (K. pneumoniae ATCC 13833; broth microdilution, 18 h): >32 mg/L; MIC E. coli ATCC 25922 (E. coli ATCC 25922; broth microdilution, 18 h, 37 °C): 32 mg/L (≈ 28.7 µM); MIC K. pneumoniae BAA 2146 (K. pneumoniae BAA 2146; NDM-1 positive strain, broth microdilution, 18 h): 32 mg/L (≈ 28.7 µM); MIC S. aureus ATCC 25923 (S. aureus ATCC 25923; Gram-positive strain, broth microdilution, 18 h): >32 mg/L; MIC P. aeruginosa ATTC 27853 (P. aeruginosa ATTC 27853; broth microdilution, 18 h): 1 mg/L (≈ 0.895 µM) |
